Literature values in patent US20250375478A1, “THERAPEUTIC COMPOSITION, ASSEMBLY KIT AND METHOD FOR THE TREATMENT OF DRY EYE DISEASE AND PROMOTION OF OCULAR HEALTH” (PReye, LLC, priority 2025, published 2025).

Conditions: ferulic acid combined in solution with Vitamin C

SMILES: COc1cc(/C=C/C(=O)O)ccc1O [Ferulic acid]
- stabilization of Vitamin C: up to 90%
